This note sets out measurements from US20210238139A1, “MODULATORS OF TRYPTOPHAN CATABOLISM” (E-Therapeutics PLC, priority 2018, published 2021).

One assay concerns SK-OV-3 cells. Put plainly: Effect of compounds on tryptophan catabolism in SK-OV-3 cell line (inhibition of kynurenine production, LC-MS/MS). It counts as cell-based. Conditions: Homo sapiens, SK-OV-3, 24 h, SK-OV-3 cell line, 24 h incubation, kynurenine in supernatant by LC-MS/MS; read-out: IC50 Ranges (ic50 values for inhibition of Kynurenine production). In outline: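 Kynurenine in supernatants quantified by LC-MS/MS after 24 h compound exposure (37 °C; top 30 μM, eight 3-fold steps, duplicate) in DMEM F-12 containing 6 mg/mL L-tryptophan. Cells pre-plated overnight in McCoy's 5A with 10% FBS. Viability checked in parallel by ATP luminescence.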
As for `N#Cc1ccc(CN(C(=O)Nc2ccccc2)C2CCCC2)o1` [Compound 60, 1-[(5-cyano-2-furyl)methyl]-1-cyclopentyl-3-phenyl-urea], the concentration for half-maximal inhibition (IC50) fell in the range of 500 to 1000 nM.
As to `O=C(Nc1cccs1)N(c1ccccc1)C1CCCC1` [Compound 58, 1-cyclopentyl-1-phenyl-3-(2-thienyl)urea], the half-inhibitory concentration (IC50) lay in the range of 1000 to 5000 nM.
Regarding `CCc1ccc(NC(=O)N(Cc2cnn(C)c2Cl)C2CCCC2)cc1` [Compound 42, 1-[(5-chloro-1-methyl-pyrazol-4-yl)methyl]-1-cyclopentyl-3-(4-ethylphenyl)urea], the 50% inhibitory concentration (IC50) fell in the range of 100 to 500 nM.
`O=C(Nc1ccccc1)N(Cc1ccoc1)C1CCCC1` [Compound 64, 1-cyclopentyl-1-(3-furylmethyl)-3-phenyl-urea]: the IC50 was 1000 to 5000 nM.
Turning to `Cc1ccc(CN(C(=O)Nc2ccc(C#CC3CC3)cc2)C2CCCC2)o1` [Compound 107, 1-cyclopentyl-3-[4-(2-cyclopropylethynyl)phenyl]-1-[(5-methyl-2-furyl)methyl]urea], the IC50 was below 100 nM.
As for `Cc1ccc(CN(C(=O)Nc2ccc(C#N)cc2)c2nonc2C)o1` [Compound 322, 3-(4-cyanophenyl)-1-[(5-methyl-2-furyl)methyl]-1-(4-methyl-1,2,5-oxadiazol-3-yl)urea], the half-maximal inhibitory concentration (IC50) was below 100 nM.
As for `N#Cc1ccc(NC(=O)N(Cc2cn3ccncc3n2)C2CCC2)cc1` [Compound 211, 3-(4-cyanophenyl)-1-cyclobutyl-1-(imidazo[1,2-a]pyrazin-2-ylmethyl)urea], the 50% inhibitory concentration (IC50) is above 5000 nM.
Consider `Cc1ccc(CN(C(=O)Nc2ccc(C#N)cn2)C2CCCC2)o1` [Compound 121, 3-(5-cyano-2-pyridyl)-1-cyclopentyl-1-[(5-methyl-2-furyl)methyl]urea], for which the concentration for half-maximal inhibition (IC50) lay within 500 to 1000 nM.
For `CC1(CN(C(=O)Nc2ccccc2)C2CCCC2)CCN(C(=O)OC(C)(C)C)CC1` [Compound 77, tert-butyl 4-[[cyclopentyl(phenylcarbamoyl)amino]methyl]-4-methyl-piperidine-1-carboxylate], the concentration for half-maximal inhibition (IC50) was 100 to 500 nM.
As to `C#Cc1ccc(NC(=O)N(Cc2ccno2)C2CCCC2)cc1` [Compound 163, 1-cyclopentyl-3-(4-ethynylphenyl)-1-(isoxazol-5-ylmethyl)urea], the IC50 was below 100 nM.
As to `Cc1ccc(CN(C(=O)Nc2ccc(C#N)cc2)c2cnn(C)c2)o1` [Compound 218, 3-(4-cyanophenyl)-1-[(5-methyl-2-furyl)methyl]-1-(1-methylpyrazol-4-yl)urea], the IC50 was 500 to 1000 nM.
Take `Cc1ccc(CN(C(=O)Nc2ccc(-c3cnn(CCN(C)C)c3)cc2)C2CCCC2)o1` [Compound 100, 1-cyclopentyl-3-[4-[1-[2-(dimethylamino)ethyl]pyrazol-4-yl]phenyl]-1-[(5-methyl-2-furyl)methyl]urea]: the IC50 was above 5000 nM.
As for `Cc1ccc(CN(C(=O)Nc2ccc(Cl)cc2)c2nonc2C)o1` [Compound 298, 3-(4-chlorophenyl)-1-[(5-methyl-2-furyl)methyl]-1-(4-methyl-1,2,5-oxadiazol-3-yl)urea], the half-maximal inhibitory concentration (IC50) is below 100 nM.
As to `Cc1nocc1N(Cc1cccc(C(F)(F)F)c1)C(=O)Nc1ccc(-n2cc(CO)nn2)cc1` [Compound 308, 3-[4-[4-(hydroxymethyl)triazol-1-yl]phenyl]-1-(3-methylisoxazol-4-yl)-1-[[3-(trifluoromethyl)phenyl]methyl]urea], the IC50 was 500 to 1000 nM.
On to `Cn1ncc(CN(C(=O)Nc2ccc(F)c(F)c2)C2CCCC2)c1Cl` [Compound 43, 1-[(5-chloro-1-methyl-pyrazol-4-yl)methyl]-1-cyclopentyl-3-(3,4-difluorophenyl) urea], for which the IC50 fell in the range of 1000 to 5000 nM.
As for `Cc1ccc(CN(C(=O)Nc2ccc(F)c(F)c2)C2CCCC2)s1` [Compound 27, 1-cyclopentyl-3-(3,4-difluorophenyl)-1-[(5-methyl-2-thienyl)methyl]urea], the 50% inhibitory concentration (IC50) fell in the range of 100 to 500 nM.

The same assay, now with this note: SK-OV-3 cell line, 24 h incubation, kynurenine in supernatant by LC-MS/MS; read-out: IC50 Ranges (ic50 values for inhibition of Kynurenine production).
Regarding `O=C(Nc1ccccc1)N(Cc1cccs1)C1CCCC1` [Compound 195, 1-cyclopentyl-3-phenyl-1-(2-thienylmethyl)urea], the IC50 lay in the range of 100 to 500 nM.

One may read the IC50 as the midpoint of a concentration-inhibition curve.
